Results from ChEMBL document CHEMBL3885861, “Open TG-GATES”.

Species on record: Rattus norvegicus
Test: Open TG-GATES - Regimen: Single
Format: toxicity, organism-based, Sprague-Dawley
Parameters: regimen Single, gender Male, age 6 weeks
Settings: in vivo, po, 0 mg/kg, route gavage, dose level Control; for APTT / Bas / Eos / Fbg / Hb / Lym / MCH / MCHC / MCV / Mono / Neu / PT / Plat / RBC / Ret / WBC: tissue Blood; for KIDNEY_L / KIDNEY_R / KIDNEY_TOTAL: tissue Kidney; for LIVER: tissue Liver; for ALP / ALT / AST / BUN / CRE / Ca / Cl / DBIL / GLC / IP / K / LDH / Na / PL / RALB / TBIL / TC / TG / TP / gamma-GTP: tissue Plasma

For `OCCN1CCN(CCCN2c3ccccc3Sc3ccc(C(F)(F)F)cc32)CC1` [FLUPHENAZINE], which TERMINAL_BW (3 h) is on record?
Its TERMINAL_BW is 199 g.

What about the APTT (3 h) of the same compound?
Its APTT is 16.1 s.

And the Bas (3 h)?
The Bas was 0%.

What about the Eos (3 h) of the same compound?
Its Eos is 0.6%.

And the Fbg (3 h)?
The Fbg was 228.2 mg/dL.

What about the Hb (3 h) of the same compound?
The Hb was 13.1 g/dL.

What about the Lym (3 h) of the same compound?
Its Lym is 80.4%.

And the MCH (3 h)?
Its MCH is 21.2 pg.

What about the MCHC (3 h) of the same compound?
Its MCHC is 33%.

What about the MCV (3 h) of the same compound?
Its MCV is 64.3 fL.

What about the Mono (3 h) of the same compound?
Its Mono is 6.8%.

And the Neu (3 h)?
Its Neu is 12.2%.

And the PT (3 h)?
Its PT is 12.5 s.

What about the Plat (3 h) of the same compound?
The Plat was 106.1 x10_4/uL.

And the RBC (3 h)?
The RBC was 617.6 x10_4/ul.

What about the Ret (3 h) of the same compound?
Its Ret is 7.6%.

And the WBC (3 h)?
The WBC was 113.1 x10_2/uL.

And the KIDNEY_L (3 h)?
The KIDNEY_L was 0.9 g.

What about the KIDNEY_R (3 h) of the same compound?
The KIDNEY_R was 0.9 g.

And the KIDNEY_TOTAL (3 h)?
The KIDNEY_TOTAL was 1.9 g.

And the LIVER (3 h)?
Its LIVER is 9.6 g.

What about the ALP (3 h) of the same compound?
Its ALP is 888.6 IU/L.

What about the ALT (3 h) of the same compound?
The ALT was 34.8 IU/L.

What about the AST (3 h) of the same compound?
The AST was 63.4 IU/L.

What about the BUN (3 h) of the same compound?
Its BUN is 13 mg/dL.

And the CRE (3 h)?
The CRE was 0.5 mg/dL.

And the Ca (3 h)?
Its Ca is 10.9 mg/dL.

And the Cl (3 h)?
Its Cl is 104.2 meq/L.

And the DBIL (3 h)?
Its DBIL is 0.006 mg/dL.

And the GLC (3 h)?
Its GLC is 179 mg/dL.

What about the IP (3 h) of the same compound?
Its IP is 10.3 mg/dL.

What about the K (3 h) of the same compound?
Its K is 5.1 meq/L.

What about the LDH (3 h) of the same compound?
The LDH was 86.2 IU/L.

And the Na (3 h)?
Its Na is 138 meq/L.

What about the PL (3 h) of the same compound?
Its PL is 154.2 mg/dL.

And the RALB (3 h)?
Its RALB is 3.9 g/dL.

And the TBIL (3 h)?
The TBIL was 0.3 mg/dL.

And the TC (3 h)?
Its TC is 85.8 mg/dL.

And the TG (3 h)?
The TG was 53.6 mg/dL.

And the TP (3 h)?
Its TP is 5.5 g/dL.

And the gamma-GTP (3 h)?
The gamma-GTP was 1.4 IU/L.

And the TERMINAL_BW (6 h)?
Its TERMINAL_BW is 196.6 g.

What about the APTT (6 h) of the same compound?
Its APTT is 16.4 s.

And the Bas (6 h)?
The Bas was 0%.

What about the Eos (6 h) of the same compound?
Its Eos is 1%.

And the Fbg (6 h)?
The Fbg was 214.4 mg/dL.

What about the Hb (6 h) of the same compound?
Its Hb is 13 g/dL.

What about the Lym (6 h) of the same compound?
The Lym was 75.8%.

And the MCH (6 h)?
Its MCH is 21.6 pg.

And the MCHC (6 h)?
The MCHC was 33.2%.

And the MCV (6 h)?
Its MCV is 65.1 fL.

What about the Mono (6 h) of the same compound?
The Mono was 8.2%.

And the Neu (6 h)?
Its Neu is 15.4%.

And the PT (6 h)?
The PT was 12.8 s.

What about the Plat (6 h) of the same compound?
The Plat was 108.7 x10_4/uL.

And the RBC (6 h)?
Its RBC is 601.2 x10_4/ul.

What about the Ret (6 h) of the same compound?
The Ret was 8.4%.

And the WBC (6 h)?
Its WBC is 105.2 x10_2/uL.

And the KIDNEY_L (6 h)?
The KIDNEY_L was 0.9 g.

What about the KIDNEY_R (6 h) of the same compound?
Its KIDNEY_R is 0.9 g.

What about the KIDNEY_TOTAL (6 h) of the same compound?
The KIDNEY_TOTAL was 1.8 g.

And the LIVER (6 h)?
The LIVER was 8.6 g.

And the ALP (6 h)?
Its ALP is 819.6 IU/L.

And the ALT (6 h)?
The ALT was 33.6 IU/L.

And the AST (6 h)?
The AST was 67.4 IU/L.

What about the BUN (6 h) of the same compound?
Its BUN is 11.2 mg/dL.

What about the CRE (6 h) of the same compound?
Its CRE is 0.5 mg/dL.

What about the Ca (6 h) of the same compound?
Its Ca is 10.2 mg/dL.

What about the Cl (6 h) of the same compound?
The Cl was 105.8 meq/L.

What about the DBIL (6 h) of the same compound?
The DBIL was 0.03 mg/dL.

And the GLC (6 h)?
Its GLC is 180.8 mg/dL.

And the IP (6 h)?
The IP was 10 mg/dL.

And the K (6 h)?
The K was 4.7 meq/L.

What about the LDH (6 h) of the same compound?
Its LDH is 93 IU/L.

What about the Na (6 h) of the same compound?
The Na was 137 meq/L.

What about the PL (6 h) of the same compound?
The PL was 118.2 mg/dL.

And the RALB (6 h)?
Its RALB is 3.6 g/dL.

What about the TBIL (6 h) of the same compound?
Its TBIL is 0.4 mg/dL.

What about the TC (6 h) of the same compound?
Its TC is 65.8 mg/dL.

And the TG (6 h)?
The TG was 36.8 mg/dL.

What about the TP (6 h) of the same compound?
The TP was 5.3 g/dL.

What about the gamma-GTP (6 h) of the same compound?
Its gamma-GTP is 1.6 IU/L.
